Test: xn = mol fraction of the nth substance listed
Details: 101 kPa, Liquid

CCCC[n+]1ccn(C)c1.O=S(=O)([N-]S(=O)(=O)C(F)(F)F)C(F)(F)F + CC#N
mass density [kg/m3]
Details | x1 = 0.0971 | x1 = 0.2033 | x1 = 0.2989 | x1 = 0.471 | x1 = 0.6261 | x1 = 0.7423 | x1 = 0.8983 | x1 = 1
293.15 K | 1034.65 | 1175.45 | 1252.06 | 1335.15 | 1380.43 | 1404.79 | 1429.03 | 1441.63
298.15 K | 1029.33 | 1170.35 | 1247.09 | 1330.18 | 1375.57 | 1400.01 | 1424.12 | 1436.83
303.13 K | 1024.05 | 1165.12 | 1242.32 | 1325.41 | 1370.72 | 1395.36 | 1419.28 | 1431.98
308.15 K | 1019.47 | 1160.25 | 1237.21 | 1320.49 | 1365.88 | 1390.45 | 1414.54 | 1427.16
313.15 K | 1014.26 | 1155.05 | 1232.4 | 1315.67 | 1361.14 | 1385.64 | 1409.73 | 1422.36

CCn1cc[n+](C)c1.O=S(=O)([N-]S(=O)(=O)C(F)(F)F)C(F)(F)F + CC#N
mass density [kg/m3]
Details | x1 = 0.0533 | x1 = 0.1886 | x1 = 0.337 | x1 = 0.4724 | x1 = 0.652 | x1 = 0.8245 | x1 = 0.924 | x1 = 1
293.15 K | 946.96 | 1183.76 | 1316.94 | 1390.06 | 1452.53 | 1492.64 | 1510.36 | 1522.08
298.15 K | 941.54 | 1178.5 | 1311.68 | 1384.82 | 1447.4 | 1487.58 | 1505.26 | 1516.96
303.13 K | 936.1 | 1173.4 | 1306.48 | 1379.62 | 1442.24 | 1482.39 | 1500.2 | 1511.85
308.15 K | 930.61 | 1168.18 | 1301.14 | 1374.57 | 1437.1 | 1477.35 | 1495.13 | 1506.8
313.15 K | 925.26 | 1162.68 | 1296.39 | 1369.51 | 1432.02 | 1472.28 | 1490.11 | 1501.74
